# Measurements: the NIST ThermoML archive (doi:10.1021/je100033s)
# ± gives the expanded uncertainty stated by the source.
# How the values were obtained:
# [1] = Liquid; for mass density: 101.33 kPa, Pycnometric method; for Normal boiling temperature: Ebulliometric method (Recirculating still)
# [2] = refractive index (Na D-line) (dimensionless); details: 101.33 kPa, Liquid, Standard Abbe refractometry
mass density ([1]; 293.1 K) [kg/m3],Normal boiling temperature [1] [°C],refractive index ([2]; 293.1 K),mass density ([1]; 298.1 K) [kg/m3],refractive index ([2]; 298.1 K),SMILES
783.1 ± 0.7,81.50 ± 0.2,1.3449 ± 0.0007,,,CC#N [acetonitrile]
,188.91 ± 0.2,,1096.1 ± 1,1.4775 ± 0.0007,C[S+](C)[O-] [dimethyl sulfoxide]
804 ± 0.7,97.09 ± 0.2,1.386 ± 0.0007,,,CCCO [propan-1-ol]
